# Assay results taken from patent US20250195521A1 (Revolution Medicines, Inc., priority 2020, published 2025).
# Like-named read-outs stand apart in the source and are kept apart here.
# Tests used:
# [1] = system: NCI-H358 cells (K-Ras G12C); experiment: CellTiter-Glo cell viability, NCI-H358; format: cell-based, human; conditions: K-Ras G12C, 5-day treatment, read-out: H358 Cell Viability IC50
# Procedure, shortened: (§1)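 Endpoint: CellTiter-Glo luminescence on day 5, following ~30 min at room temperature. Data as (sample/mean DMSO)×100, four-parameter logistic fit.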
# [2] = system: Capan-1 cells (K-Ras G12V); experiment: CellTiter-Glo cell viability, Capan-1; format: cell-based, human; conditions: K-Ras G12V, 5-day treatment, read-out: Capan-1 Cell Viability IC50
# Procedure, shortened: as §1
# KRAS G12D = KRAS G12D (Homo sapiens (Human), UniProt P01116+P62937, G12D); experiment: Ras-Raf disruption/FRET/MOA assay (BRAF RBD, Cyclophilin A); format: biochemical; conditions: read-out: KRAS G12D FRET IC50
# Sequence of KRAS G12D (P01116 other isoform, or with tags, fused parts or gaps G12D): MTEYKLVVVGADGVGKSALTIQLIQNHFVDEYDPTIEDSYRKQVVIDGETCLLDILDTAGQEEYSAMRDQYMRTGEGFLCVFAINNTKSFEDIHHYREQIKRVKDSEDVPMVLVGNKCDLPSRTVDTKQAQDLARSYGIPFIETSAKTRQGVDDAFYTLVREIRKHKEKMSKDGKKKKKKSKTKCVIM
# Sequence of KRAS G12D (P62937 whole entry): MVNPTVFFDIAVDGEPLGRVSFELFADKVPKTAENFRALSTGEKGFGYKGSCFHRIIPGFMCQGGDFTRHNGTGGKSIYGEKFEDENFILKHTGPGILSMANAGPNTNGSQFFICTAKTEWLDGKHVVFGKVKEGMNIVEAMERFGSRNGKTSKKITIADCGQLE
# Procedure, shortened: (§2)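 His6-K-Ras-GMPPNP (12.5 nM), GST-BRAF RBD (50 nM) and tagless Cyclophilin A (25 μM) were combined in 25 mM HEPES pH 7.3 with 100 mM NaCl, 5 mM MgCl2, 0.1% BSA and 0.002% Tween20, with compound as a 10-point 3-fold series from 30 μM final, then incubated 3 h at 25° C.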
# KRAS G13C = KRAS G13C (Homo sapiens (Human), UniProt P01116+P62937, G13C); experiment: as above; format: biochemical; conditions: read-out: KRAS G13C FRET IC50
# Sequence of KRAS G13C (P01116 other isoform, or with tags, fused parts or gaps G13C): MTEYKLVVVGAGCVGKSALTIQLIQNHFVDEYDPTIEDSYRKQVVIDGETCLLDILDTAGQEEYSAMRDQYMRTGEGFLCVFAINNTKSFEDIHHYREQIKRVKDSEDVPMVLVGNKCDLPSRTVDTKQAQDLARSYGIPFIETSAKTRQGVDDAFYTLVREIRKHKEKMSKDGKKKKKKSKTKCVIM
# Sequence of KRAS G13C (P62937 whole entry): as the sequence (P62937 whole entry) above
# Procedure, shortened: as §2
# KRAS Q61H = KRAS Q61H (Homo sapiens (Human), UniProt P01116+P62937, Q61H); experiment: as above; format: biochemical
# Sequence of KRAS Q61H (P01116 other isoform, or with tags, fused parts or gaps Q61H): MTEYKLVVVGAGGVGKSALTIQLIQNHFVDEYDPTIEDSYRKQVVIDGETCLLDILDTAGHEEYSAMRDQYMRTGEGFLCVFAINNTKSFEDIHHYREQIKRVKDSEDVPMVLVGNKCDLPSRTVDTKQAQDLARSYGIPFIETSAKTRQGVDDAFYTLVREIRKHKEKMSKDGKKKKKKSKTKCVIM
# Sequence of KRAS Q61H (P62937 whole entry): as the sequence (P62937 whole entry) above
# Procedure, shortened: as §2
# NRAS Q61K = NRAS Q61K (Homo sapiens (Human), UniProt P01111+P62937, Q61K); experiment: as above; format: biochemical
# Sequence of NRAS Q61K (P01111 whole entry Q61K): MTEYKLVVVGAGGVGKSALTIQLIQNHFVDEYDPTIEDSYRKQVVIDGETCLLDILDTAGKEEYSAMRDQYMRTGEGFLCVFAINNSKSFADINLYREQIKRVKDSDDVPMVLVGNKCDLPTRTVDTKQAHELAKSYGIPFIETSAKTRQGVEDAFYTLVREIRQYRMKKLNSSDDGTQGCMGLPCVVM
# Sequence of NRAS Q61K (P62937 whole entry): as the sequence (P62937 whole entry) above
# Procedure, shortened: (§3)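 Measured: compound-facilitated Cyclophilin A:Ras complex blocking RAF RBD binding. Conditions: 12.5 nM Ras-GMPPNP, 50 nM BRAF RBD, 25 μM CypA, 3 h plus 1.5 h detection. Output: IC50 from TR-FRET ratio.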
# NRAS Q61R = NRAS Q61R (Homo sapiens (Human), UniProt P01111+P62937, Q61R); experiment: as above; format: biochemical
# Sequence of NRAS Q61R (P01111 whole entry Q61R): as the sequence (P01111 whole entry Q61K) above, with K61R counted along it
# Sequence of NRAS Q61R (P62937 whole entry): as the sequence (P62937 whole entry) above
# Procedure, shortened: as §3
# NRAS WT = NRAS WT (Homo sapiens (Human), UniProt P01111+P62937); experiment: as above; format: biochemical
# Sequence of NRAS WT (P01111 whole entry): as the sequence (P01111 whole entry Q61K) above, with K61Q counted along it
# Sequence of NRAS WT (P62937 whole entry): as the sequence (P62937 whole entry) above
# Procedure, shortened: as §3
# [3] = system: K-Ras G12C (NCI-H358 cells); experiment: Potency assay: pERK in NCI-H358 cells; format: cell-based, human; conditions: NCI-H358 cells, 4 hours; read-out: pERK EC50 (H358 KRAS G12C)
# Procedure, shortened: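 Cells plated the day before were exposed for 4 h at 37° C, 5% CO2 to a 10-point, 3-fold DMSO dilution series (10 mM top stock), in duplicate. Phospho-ERK was read by AlphaLISA SureFire Ultra or by In-Cell Western with DRAQ5 DNA stain, and IC50 came from a 4-parameter sigmoidal fit.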
# KRAS G12C = KRAS G12C (Homo sapiens (Human), UniProt P01116+P62937, G12C); experiment: Ras-Raf disruption/FRET/MOA assay (BRAF RBD, Cyclophilin A); format: biochemical; conditions: read-out: KRAS G12C FRET IC50
# Sequence of KRAS G12C (P01116-2 other isoform, or with tags, fused parts or gaps G12C): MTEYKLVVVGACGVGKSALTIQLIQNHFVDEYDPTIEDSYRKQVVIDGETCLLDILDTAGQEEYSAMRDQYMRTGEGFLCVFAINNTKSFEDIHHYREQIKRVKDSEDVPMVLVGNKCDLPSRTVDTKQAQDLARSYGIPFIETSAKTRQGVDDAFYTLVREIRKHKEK
# Sequence of KRAS G12C (P62937 whole entry): as the sequence (P62937 whole entry) above
# Procedure, shortened: as §2
# KRAS G12S = KRAS G12S (Homo sapiens (Human), UniProt P01116+P62937, G12S); experiment: as above; format: biochemical; conditions: read-out: KRAS G12S FRET IC50
# Sequence of KRAS G12S (P01116 other isoform, or with tags, fused parts or gaps G12S): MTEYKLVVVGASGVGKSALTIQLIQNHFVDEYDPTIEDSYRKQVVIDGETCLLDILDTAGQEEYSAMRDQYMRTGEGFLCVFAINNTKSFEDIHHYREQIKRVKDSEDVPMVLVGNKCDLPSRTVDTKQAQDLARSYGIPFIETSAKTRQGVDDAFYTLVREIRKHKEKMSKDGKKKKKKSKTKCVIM
# Sequence of KRAS G12S (P62937 whole entry): as the sequence (P62937 whole entry) above
# Procedure, shortened: as §2
# KRAS G12V = KRAS G12V (Homo sapiens (Human), UniProt P01116+P62937, G12V); experiment: as above; format: biochemical; conditions: read-out: KRAS G12V FRET IC50
# Sequence of KRAS G12V (P01116 other isoform, or with tags, fused parts or gaps G12V): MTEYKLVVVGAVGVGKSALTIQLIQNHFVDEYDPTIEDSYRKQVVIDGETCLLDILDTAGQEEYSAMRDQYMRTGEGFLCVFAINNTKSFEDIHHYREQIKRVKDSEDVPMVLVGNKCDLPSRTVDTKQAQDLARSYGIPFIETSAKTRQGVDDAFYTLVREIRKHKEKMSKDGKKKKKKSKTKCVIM
# Sequence of KRAS G12V (P62937 whole entry): as the sequence (P62937 whole entry) above
# Procedure, shortened: as §2
# KRAS G13D = KRAS G13D (Homo sapiens (Human), UniProt P01116+P62937, G13D); experiment: as above; format: biochemical; conditions: read-out: KRAS G13D FRET data IC50
# Sequence of KRAS G13D (P01116 other isoform, or with tags, fused parts or gaps G13D): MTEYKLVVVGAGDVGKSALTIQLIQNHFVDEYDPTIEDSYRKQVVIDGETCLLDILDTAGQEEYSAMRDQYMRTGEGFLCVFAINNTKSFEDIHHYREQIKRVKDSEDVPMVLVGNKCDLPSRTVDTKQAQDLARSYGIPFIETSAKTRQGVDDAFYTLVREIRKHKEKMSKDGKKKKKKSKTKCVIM
# Sequence of KRAS G13D (P62937 whole entry): as the sequence (P62937 whole entry) above
# Procedure, shortened: as §2
# KRAS WT = KRAS WT (Homo sapiens (Human), UniProt P01116+P62937); experiment: as above; format: biochemical; conditions: read-out: KRAS WT FRET data IC50
# Sequence of KRAS WT (P01116 other isoform, or with tags, fused parts or gaps): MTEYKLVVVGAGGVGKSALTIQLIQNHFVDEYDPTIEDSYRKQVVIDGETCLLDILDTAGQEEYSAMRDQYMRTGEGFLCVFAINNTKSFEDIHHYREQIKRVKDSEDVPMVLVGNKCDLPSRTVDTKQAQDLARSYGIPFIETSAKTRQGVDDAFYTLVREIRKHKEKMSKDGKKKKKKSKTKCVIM
# Sequence of KRAS WT (P62937 whole entry): as the sequence (P62937 whole entry) above
# Procedure, shortened: as §2
# NRAS G12C = NRAS G12C (Homo sapiens (Human), UniProt P01111+P62937, G12C); experiment: as above; format: biochemical; conditions: read-out: NRAS G12C FRET data IC50
# Sequence of NRAS G12C (P01111 whole entry G12C): as the sequence (P01111 whole entry Q61K) above, with G12C, K61Q counted along it
# Sequence of NRAS G12C (P62937 whole entry): as the sequence (P62937 whole entry) above
# Procedure, shortened: as §3
SMILES,IC50 [1] [nM],IC50 (KRAS G12D) [nM],IC50 (KRAS G13C) [nM],IC50 (KRAS Q61H) [nM],IC50 (NRAS Q61K) [nM],IC50 (NRAS Q61R) [nM],IC50 (NRAS WT) [nM],EC50 [3] [µM],"IC50 ([1]; Homo sapiens, NCI-H358, 120 h) [nM]",IC50 (KRAS G12C) [nM],IC50 (KRAS G12S) [nM],IC50 (KRAS G12V) [nM],IC50 (KRAS G13D) [nM],IC50 (KRAS WT) [nM],IC50 (NRAS G12C) [nM],IC50 [2] [nM],"IC50 ([2]; Homo sapiens, CAPAN-1, 120 h) [nM]"
CCn1c(-c2cccnc2[C@H](C)OC)c2c3cc(ccc31)-c1cc(O)cc(c1)C[C@H](NC(=O)[C@H](C(C)C)N(C)C(=O)N1CC(N(C)C)C1)C(=O)N1CCC[C@H](N1)C(=O)OCC(C)(C)C2 [Compound A170],10 to 100,1000 to 10000,100 to 1000,100 to 1000,10 to 100,100 to 1000,100 to 1000,< 5,,,,,,,,10 to 100,
CCn1c(-c2cccnc2[C@H](C)OC)c2c3cc(ccc31)-c1csc(n1)C[C@H](NC(=O)[C@H](C(C)C)N(C)C(=O)N1[C@H](C)COC[C@@H]1C)C(=O)N1CCC[C@H](N1)C(=O)OCC(C)(C)C2 [Compound A276],,1000 to 10000,100 to 1000,100 to 1000,100 to 1000,100 to 1000,100 to 1000,,100 to 1000,100 to 1000,100 to 1000,1000 to 10000,1000 to 10000,100 to 1000,100 to 1000,,100 to 1000
CCn1c(-c2cccnc2[C@H](C)OC)c2c3cc(ccc31)-c1csc(n1)C[C@H](NC(=O)[C@H](C(C)C)N(C)C(=O)N1CC3(CCCN(C)C3=O)C1)C(=O)N1CCC[C@H](N1)C(=O)OCC(C)(C)C2 [Compound A453],,> 10000,1000 to 10000,100 to 1000,100 to 1000,100 to 1000,1000 to 10000,,1000 to 10000,100 to 1000,1000 to 10000,1000 to 10000,,1000 to 10000,100 to 1000,,1000 to 10000

# The next lines start with results.
IC50 [1] [nM],IC50 (KRAS G12D) [nM],IC50 (KRAS G13C) [nM],IC50 (KRAS Q61H) [nM],IC50 (NRAS Q61K) [nM],IC50 (NRAS Q61R) [nM],IC50 (NRAS WT) [nM],EC50 [3] [µM],"IC50 ([1]; Homo sapiens, NCI-H358, 120 h) [nM]",IC50 (KRAS G12C) [nM],IC50 (KRAS G12S) [nM],IC50 (KRAS G12V) [nM],IC50 (KRAS G13D) [nM],IC50 (KRAS WT) [nM],IC50 (NRAS G12C) [nM],SMILES,IC50 [2] [nM],"IC50 ([2]; Homo sapiens, CAPAN-1, 120 h) [nM]"
,100 to 1000,100 to 1000,100 to 1000,100 to 1000,100 to 1000,100 to 1000,,100 to 1000,100 to 1000,100 to 1000,100 to 1000,100 to 1000,100 to 1000,100 to 1000,CCn1c(-c2cccnc2[C@H](C)OC)c2c3cc(ccc31)-c1csc(n1)C[C@H](NC(=O)N1CCOCC1)C(=O)N1CCC[C@H](N1)C(=O)OCC(C)(C)C2 [Compound A270],,1000 to 10000
,1000 to 10000,100 to 1000,100 to 1000,100 to 1000,100 to 1000,100 to 1000,,10 to 100,100 to 1000,100 to 1000,100 to 1000,100 to 1000,100 to 1000,10 to 100,CCn1c(-c2cccnc2[C@H](C)OC)c2c3cc(ccc31)-c1csc(n1)C[C@H](NC(=O)[C@H](C(C)C)N(C)C(=O)N1CCS(=O)(=O)CC1)C(=O)N1CCC[C@H](N1)C(=O)OCC(C)(C)C2 [Compound A357],,10 to 100
,100 to 1000,100 to 1000,100 to 1000,100 to 1000,1000 to 10000,100 to 1000,,100 to 1000,100 to 1000,100 to 1000,1000 to 10000,100 to 1000,100 to 1000,100 to 1000,CCn1c(-c2cccnc2[C@H](C)OC)c2c3cc(ccc31)-c1csc(n1)C[C@H](NC(=O)[C@H](C(C)C)N(C)C(=O)[C@@H]1[C@@H]3CN(C)C[C@@H]31)C(=O)N1CCC[C@H](N1)C(=O)OCC(C)(C)C2 [Compound A447],,100 to 1000
